Assay results reported in patent publication US12108762B2, “Methods of controlling crop pests using aromatic amide insect repellents, methods of making aromatic amide insect repellents, and novel aromatic amide insect repellents” (priority 2020, dated 2024).
“Also recorded” adds a separate entry of the source.

Key:
Assay type in all cases: in vivo
[1] = tested on: Drosophila melanogaster; assay: One-choice (single-trap) olfactory trap assay; conditions: for repellency compared with DEET, one-choice trap assay: 25 μl of 25% by weight in DMSO on filter paper, 10% ACV attractant, 6 hours (FIG. 10) and 24 hours (FIG. 13); for fly death during the 6-hour screen: starved flies
Protocol: (§1) The D. melanogaster assays served as a model for SWD repellency. Forty different aromatic amides were studied at a 25% concentration by weight in DMSO, and the fruit fly chemosensory behaviors in response thereto were characterized. […]
(§2) Flies were monitored throughout their life cycle. Five-day-old flies (10 male and 10 females) were selected per assay, and starved for a predetermined length of time (e.g., 20 hours). After starvation, two different assays were used to study the olfactory related responses.
FIG. 7A is a diagram of a single-trap olfactory assay. Flies 105 were placed in a cylindrical chamber 100 containing a trap 110. The trap 110 was fashioned from an upturned 1.5 ml micro-centrifuge tube where the tapered end was trimmed away. A pipette tip 120 was cut to form a funnel and inserted into the bottom of the inverted micro-centrifuge tube 110. Then, filter paper 130 was placed between the pipette tip 120 and tip of micro-centrifuge tube 110. The pipette tip 120 was placed so that entering flies could not make physical contact with the filter paper 130. The filter paper 130 was placed in this manner so that when the filter paper 130 was treated with the repellent solution, the flies would only be able to smell at a distance and should be repelled even in the presence of an attractant.
A 25 μl sample of test compound at 25% concentration was applied to the filter paper 130 in order to provide the odor source. At the bottom of the trap 110, 125 μl of 10% apple cider vinegar (ACV) was placed as an attractant. Trials were conducted for 24 hours to visualize the number of flies 105 entering the trap 110. Typically, flies that entered the trap 110 contacted the liquid ACV and died in the ACV. Flies were counted and recorded at 4, 6, and 24 hours. No control other than DEET was used for this experiment, because it was a single trap, comparing the number of flies 105 repelled by the repellent versus the number of flies 105 interacting with the attractant (ACV).
(§3) The different assays assigned results as follows. For the single-choice olfactory assay, the numbers of flies were counted according to (1) those that entered the trap, (2) those that stayed outside the trap and lived, and (3) those that died outside the trap. For the two-choice olfactory assay, the numbers of flies were counted according to (1) those that entered the control trap, (2) those that entered the trap containing the repellent, (3) those that stayed outside of both traps and lived, and (4) those that died outside the traps. For the gustatory assay, the numbers of flies were counted according to those that had (1) a red-colored abdomen, (2) a blue-colored abdomen, (3) a purple abdomen, and (4) no added color to their abdomen. A nonparametric Mann-Whitney U test was used to compare the statistical differences between assays using DEET and the same assays using one of the present repellents for all trials.

[2] = tested on: Drosophila melanogaster; assay: Two-choice trap olfactory assay; conditions: for interaction with control trap in comparison with repellent-treated trap: low participation; for trap preference (control trap versus repellent-treated trap): DMSO control vs 25 μl of 25% by weight in DMSO
Protocol: as §1, §2
FIG. 7B is a diagram of a 2-choice trap olfactory assay. Two ACV traps 110a-b were prepared as above, in a cylinder 150 from upturned 1.5 ml micro-centrifuge tubes with the tapered end trimmed away, and a pipette 120a-b inserted into the inverted micro-centrifuge tube. In the cylinder 150, one trap 110a was treated with 25 μl of DMSO (as a control) on the filter paper 135, and the other trap 110b with the 25 μl of the 25% by weight solution of the test compound in DMSO applied to the filter paper 130. 125 μl of 10% ACV, diluted with water, was placed in the bottom of the traps 110a-b. Both traps contained filter paper as prepared in the one-trap assay. All trials were screened for 24 hours, and the number of flies 105 in each trap was counted. Positions of the traps (i.e., left or right, relative to the location of the chamber 150 in the room) were randomized. The number of flies 105 in each trap 110a and 110b were counted and recorded at 4, 6 and 24 hours.
as §3

[3] = tested on: Drosophila melanogaster; assay: Gustatory assay (fructose preference, food colouring); conditions: 1 hour feeding; for gustatory repellency (preference for repellent-treated sugar versus control-treated sugar): 35 mM fructose with 5 mM repellent vs 25 mM fructose control; for gustatory repellency compared with DEET: 5 mM repellent, FIG. 12
Protocol: The D. melanogaster assays served as a model for SWD repellency. Forty different aromatic amides were studied at a 25% concentration by weight in DMSO, and the fruit fly chemosensory behaviors in response thereto were characterized.
In the gustatory assay, the consumption of sugar (from a solution in a gel) treated at varying concentrations of the present repellent compounds was compared to the consumption of control-treated sugar. For the habituation assay, flies were tested over repeated exposures to the present repellent compounds to measure changes in behavioral preference for the compounds.
Flies were continuously monitored throughout their lifecycle. In doing so, 3- to 5-day-old flies (half male and half female) were selected and starved for 20 hours. Flies were then introduced to 96-well plates 200 with wells 210a-220vv that were alternately filled with two different sugar solutions, as shown in FIG. 8. Wells 210a-210vv were filled with 25 mM fructose in DMSO (as a control), colored with red food coloring, and wells 220a-220vv were filled with […] fructose mixed with 5 mM of the present insect repellent in DMSO, colored with blue food coloring. The food coloring is nontoxic, so it has no effect on preference. Using an established protocol (Montell, C., et al., Avoiding DEET through insect gustatory receptors. NIH Neuron 67(4), 2010, 555-561: doi:10.1016/j.neuron.2010.07.006), flies selected between the fructose control or fructose mixed with aromatic amide repellent. Tests were performed on at least one group of about 50 males and at least one group of 50 females. Flies were placed in the dark for 1 hour, then the food coloring in the fly's abdomen was visualized under a compound microscope. The color of the abdomen was noted, along with the intensity, providing a quantitative idea of how much sugar each fly consumed, and from which type of well (control vs. mixed with repellent). The flies were fed for one hour so that the amount of food coloring was significant enough to be visible. A preference index was made to define the amount of food coloring consumed and assess the degree of repellent avoidance via gustatory processes.
as §3

[4] = one-choice trap, 25% concentration
[5] = one-choice trap, 25% concentration, 6 hours

Structure (SMILES) | repellency compared with DEET, one-choice trap assay [1] | fly death during the 6-hour screen [1, 5] | participation in choosing either trap ([2]; 25% by weight, 6 hours) | trap preference (control trap versus repellent-treated trap) ([2]; 6 hours) | other results
Cc1cccc(C(=O)N2CCCCC2)c1 [Compound 1mC] | more effective than DEET | no fly death | less overall participation | preference for the control trap | aversion (no flies entering the single-choice trap) [1, 4]: 100%; ranking among repellents in the one-choice assay [1, 4]: most effective repellents; repellency [1, 5]: significant repellency; average number of flies that chose a trap in 6 hours ([2]; 25% by weight, 20 flies per assay, 6 hours): 1 flies; interaction with control trap in comparison with repellent-treated trap ([2]; 25% by weight): more flies interacted with the control trap
Cc1cccc(C(=O)N2CCOCC2)c1 [Compound 1mD] |  |  |  |  | gustatory repellency (preference for repellent-treated sugar versus control-treated sugar) [3]: act as a gustatory repellent
Cc1cccc(C(=O)N2CCN(C)CC2)c1 [Compound 1mE, 1-methyl-4-(3-methylbenzoyl)piperazine] | more effective than DEET | some fly death |  |  | 
Cc1ccccc1C(=O)N1CCOCC1 [Compound 1oD] | more effective than DEET | some fly death | less overall participation | preference for the control trap | 
Cc1ccccc1C(=O)N1CCN(C)CC1 [Compound 1oE] |  |  | less overall participation | preference for the control trap | interaction with control trap in comparison with repellent-treated trap ([2]; 25% by weight): more flies interacted with the control trap
O=C(c1cccc(F)c1)N1CCCCC1 [Compound 2mC] | more effective than DEET |  |  |  | 
O=C(c1ccccc1F)N1CCCC1 [Compound 2oB] |  |  | less overall participation | preference for the control trap | interaction with control trap in comparison with repellent-treated trap ([2]; 25% by weight): more flies interacted with the control trap
O=C(c1ccccc1F)N1CCCCC1 [Compound 2oC] | more effective than DEET | no fly death |  |  | repellency [1, 5]: significant repellency
O=C(c1ccccc1F)N1CCOCC1 [Compound 2oD] | more effective than DEET |  |  |  | 
O=C(c1cccc(C(F)(F)F)c1)N1CCCC1 [Compound 3mB] | more effective than DEET | no fly death | less overall participation | preference for the control trap | repellency [1, 5]: significant repellency
O=C(c1cccc(C(F)(F)F)c1)N1CCCCC1 [Compound 3mC] | more effective than DEET | no fly death | less overall participation | preference for the control trap | repellency [1, 5]: significant repellency; gustatory repellency compared with DEET [3]: significantly worse than DEET; gustatory repellency (preference for repellent-treated sugar versus control-treated sugar) [3]: act as a gustatory repellent
O=C(c1cccc(C(F)(F)F)c1)N1CCOCC1 [Compound 3mD] | more effective than DEET | some fly death |  |  | 
O=C(c1ccccc1C(F)(F)F)N1CCCC1 [Compound 3oB] | more effective than DEET |  |  |  | 
CN1CCN(C(=O)c2ccccc2C(F)(F)F)CC1 [Compound 3oE] | more effective than DEET |  |  |  | 
O=C(c1cccc([N+](=O)[O-])c1)N1CCCCC1 [Compound 4mC] | more effective than DEET; also recorded: significantly better than DEET | all the flies were dead |  |  | average number of flies that entered the trap ([1]; one-choice trap, 25% concentration, 20 flies per assay, 6 hours): 5 flies; fly mortality ([1]; one-choice trap, 25% concentration, exposure in the gas phase): high mortality
O=C(c1cccc([N+](=O)[O-])c1)N1CCOCC1 [Compound 4mD] |  |  |  |  | gustatory repellency (preference for repellent-treated sugar versus control-treated sugar) [3]: act as a gustatory repellent
CN1CCN(C(=O)c2ccccc2[N+](=O)[O-])CC1 [Compound 4oE] | more effective than DEET | some fly death |  |  | 
COc1cccc(C(=O)N2CCCC2)c1 [Compound 5mB] |  |  | much higher mean participation | significantly greater preference for the control trap | gustatory repellency compared with DEET [3]: worse than DEET; gustatory repellency (preference for repellent-treated sugar versus control-treated sugar) [3]: act as a gustatory repellent; also recorded: slightly lower preference
COc1cccc(C(=O)N2CCCCC2)c1 [Compound 5mC] | more effective than DEET |  |  |  | gustatory repellency (preference for repellent-treated sugar versus control-treated sugar) [3]: act as a gustatory repellent
COc1cccc(C(=O)N2CCN(C)CC2)c1 [Compound 5mE] |  |  | less overall participation | preference for the control trap | 
COc1ccccc1C(=O)N1CCCCC1 [Compound 5oC] | more effective than DEET |  |  |  | 
Nc1cccc(C(=O)N2CCCC2)c1 [Compound 6mB] |  |  | higher mean participation | preferred the control trap | 
CN1CCN(C(=O)c2cccc(N)c2)CC1 [Compound 6mE] | more effective than DEET |  |  |  | 
Nc1ccccc1C(=O)N1CCCCC1 [Compound 6oC] | more effective than DEET |  |  |  | 
